In patent publication US10597388B2, “Pyridazinone herbicides” (FMC CORPORATION, priority 2014, dated 2020):

Experiments:
Assay type in all cases: in vivo
[1] = system: bromegrass, downy (downy bromegrass, Bromus tectorum); assay: Test D controlled growth environment herbicide test, pre- and postemergence; details: for Bromegrass, Downy plant response rating / Plant response rating (scale of 0 to 100), Bromegrass, Downy: 31 g ai/ha
How it was run: (§1)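 Rating is visual, 0–100 scale (100 = complete control), made against untreated plants 14–21 d after treatment in controlled growth conditions. Postemergence sprays went onto 1- to 4-leaf plants in peat medium; preemergence sprays onto silt loam after sowing; formulation included a surfactant.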

[2] = system: bluegrass (annual bluegrass, Poa annua); assay: as above; details: for Bluegrass plant response rating / Plant response rating (scale of 0 to 100), Bluegrass: 31 g ai/ha
How it was run: as §1

[3] = system: speedwell (bird's-eye speedwell, Veronica persica); assay: as above
How it was run: as §1

[4] = system: ryegrass, Italian (Italian ryegrass, Lolium multiflorum); assay: as above
How it was run: as §1

soybean (Glycine max) = assay: Test E greenhouse herbicide test, pre- and postemergence
How it was run: (§2)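 Compounds in surfactant-containing solvent are applied to soil right after sowing (silt loam) and, in parallel, to 1- to 4-leaf plants in a peat-based medium. Weed control is scored visually on a 0 (none) to 100 (complete) scale at 14 to 21 d.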

[5] = system: waterhemp (common waterhemp, Amaranthus rudis); assay: as above
How it was run: as §2

corn (Zea mays) = assay: as above
How it was run: as §2

[6] = system: crabgrass, Brazilian (Brazilian crabgrass, Digitaria horizontalis); assay: as above
How it was run: as §2

[7] = Postemergence, scale 0 to 100 (0 no effect, 100 complete control)
[8] = Postemergence, 125 g ai/ha, visual rating on scale 0 (no effect) to 100 (complete control), 14 to 21 d
[9] = Postemergence, 250 g ai/ha, scale 0 to 100 (0 no effect, 100 complete control)
[10] = Preemergence, 62 g ai/ha, scale 0 to 100 (0 no effect, 100 complete control)
[11] = Preemergence, 125 g ai/ha, scale 0 to 100 (0 no effect, 100 complete control)
[12] = Preemergence, 250 g ai/ha, scale 0 to 100, 0 no effect, 100 complete control
[13] = postemergence, 62 g ai/ha, scale 0 to 100, 0 no effect, 100 complete control
[14] = Postemergence, 31 g ai/ha, scale 0 to 100 (0 no effect, 100 complete control)
[15] = 62 g ai/ha, Postemergence, scale 0 to 100 (0 no effect, 100 complete control)
[16] = 62 g ai/ha, Preemergence, scale 0 to 100 (0 no effect, 100 complete control)
[17] = 125 g ai/ha, Postemergence, scale 0 to 100 (0 no effect, 100 complete control)
[18] = 125 g ai/ha, Preemergence, scale 0 to 100 (0 no effect, 100 complete control)
[19] = 250 g ai/ha, Postemergence, scale 0 to 100 (0 no effect, 100 complete control)
[20] = Postemergence, 31 g ai/ha, visual, scale 0 no effect to 100 complete control
[21] = Preemergence, 31 g ai/ha, scale 0 to 100, 0 no effect, 100 complete control
[22] = Preemergence, 250 g ai/ha, visual, scale 0 no effect to 100 complete control

Cc1ccc2ccccc2c1-c1c(OC(=O)OC(C)C)c(C)nn(C)c1=O [Compound 72]
Bromegrass, Downy plant response rating [1, 7]: 45
Plant response rating, Bromegrass, Downy [1, 8]: 65
Plant response rating, Bromegrass, Downy [1, 9]: 75
Plant response rating (scale of 0 to 100), Bromegrass, Downy ([1]; Preemergence): 0
Plant response rating, Bromegrass, Downy [1, 10]: 0
Plant response rating, Bromegrass, Downy [1, 11]: 35
Plant response rating, Bromegrass, Downy [1, 12]: 60
Plant response rating, Bromegrass, Downy [1, 13]: 55
Bluegrass plant response rating [2, 7]: 20
Plant response rating, Bluegrass [2, 8]: 40
Plant response rating, Bluegrass [2, 9]: 55
Plant response rating (scale of 0 to 100), Bluegrass ([2]; Preemergence): 10
Plant response rating, Bluegrass [2, 10]: 25
Plant response rating, Bluegrass [2, 11]: 25
Plant response rating, Bluegrass [2, 12]: 50
Plant response rating, Bluegrass [2, 13]: 35
Speedwell plant response rating [3, 14]: 75
Plant response rating, Speedwell [3, 8]: 100
Plant response rating, Speedwell [3, 9]: 80
Plant response rating (scale of 0 to 100), Speedwell ([3]; Preemergence, 31 g ai/ha): 5
Plant response rating, Speedwell [3, 10]: 70
Plant response rating, Speedwell [3, 12]: 100
Plant response rating, Speedwell [3, 13]: 75
Ryegrass, Italian plant response rating [4, 14]: 95
Plant response rating, Ryegrass, Italian [4, 8]: 95
Plant response rating, Ryegrass, Italian [4, 9]: 100
Plant response rating (scale of 0 to 100), Ryegrass, Italian ([4]; Preemergence, 31 g ai/ha): 55
Plant response rating, Ryegrass, Italian [4, 10]: 75
Plant response rating, Ryegrass, Italian [4, 11]: 100
Plant response rating, Ryegrass, Italian [4, 12]: 90
Plant response rating, Ryegrass, Italian [4, 13]: 95
Plant response rating, Soybean (soybean (Glycine max); [15]): 30
Plant response rating, Soybean (soybean (Glycine max); [16]): 0
Plant response rating, Soybean (soybean (Glycine max); [17]): 30
Plant response rating, Soybean (soybean (Glycine max); [18]): 0
Plant response rating, Soybean (soybean (Glycine max); [19]): 50
Plant response rating, Soybean (soybean (Glycine max); [20]): 25
Plant response rating, Soybean (soybean (Glycine max); [21]): 0
Plant response rating, Soybean (soybean (Glycine max); [22]): 15
Plant response rating, Waterhemp [5, 15]: 65
Plant response rating, Waterhemp [5, 16]: 100
Plant response rating, Waterhemp [5, 17]: 80
Plant response rating, Waterhemp [5, 18]: 100
Plant response rating, Waterhemp [5, 19]: 90
Plant response rating, Waterhemp [5, 20]: 65
Plant response rating, Waterhemp [5, 21]: 90
Plant response rating, Waterhemp [5, 22]: 100
Plant response rating, Corn (corn (Zea mays); [15]): 10
Plant response rating, Corn (corn (Zea mays); [16]): 0
Plant response rating, Corn (corn (Zea mays); [17]): 20
Plant response rating, Corn (corn (Zea mays); [18]): 0
Plant response rating, Corn (corn (Zea mays); [19]): 30
Plant response rating, Corn (corn (Zea mays); [20]): 0
Plant response rating, Corn (corn (Zea mays); [21]): 0
Plant response rating, Corn (corn (Zea mays); [22]): 0
Plant response rating, Crabgrass, Brazil [6, 15]: 40
Plant response rating, Crabgrass, Brazil [6, 16]: 60
Plant response rating, Crabgrass, Brazil [6, 17]: 60
Plant response rating, Crabgrass, Brazil [6, 18]: 90
Plant response rating, Crabgrass, Brazil [6, 19]: 70
Plant response rating, Crabgrass, Brazil [6, 20]: 50
Plant response rating, Crabgrass, Brazil [6, 21]: 50
Plant response rating, Crabgrass, Brazil [6, 22]: 98

Cc1nn(C)c(=O)c(-c2cccc3ccc(Br)cc23)c1O [Compound 126]
Bromegrass, Downy plant response rating [1, 7]: 5
Plant response rating, Bromegrass, Downy [1, 8]: 20
Plant response rating, Bromegrass, Downy [1, 9]: 25
Plant response rating (scale of 0 to 100), Bromegrass, Downy ([1]; Preemergence): 0
Plant response rating, Bromegrass, Downy [1, 10]: 0
Plant response rating, Bromegrass, Downy [1, 11]: 20
Plant response rating, Bromegrass, Downy [1, 12]: 30
Plant response rating, Bromegrass, Downy [1, 13]: 10
Bluegrass plant response rating [2, 7]: 0
Plant response rating, Bluegrass [2, 8]: 15
Plant response rating, Bluegrass [2, 9]: 15
Plant response rating (scale of 0 to 100), Bluegrass ([2]; Preemergence): 5
Plant response rating, Bluegrass [2, 10]: 5
Plant response rating, Bluegrass [2, 11]: 30
Plant response rating, Bluegrass [2, 12]: 40
Plant response rating, Bluegrass [2, 13]: 10
Speedwell plant response rating [3, 14]: 60
Plant response rating, Speedwell [3, 8]: 100
Plant response rating, Speedwell [3, 9]: 100
Plant response rating (scale of 0 to 100), Speedwell ([3]; Preemergence, 31 g ai/ha): 70
Plant response rating (scale of 0 to 100), Speedwell ([3]; Preemergence, 62 g ai/ha): 100
Plant response rating, Speedwell [3, 11]: 100
Plant response rating, Speedwell [3, 12]: 100
Plant response rating, Speedwell [3, 13]: 65
Ryegrass, Italian plant response rating [4, 14]: 85
Plant response rating, Ryegrass, Italian [4, 8]: 90
Plant response rating, Ryegrass, Italian [4, 9]: 90
Plant response rating (scale of 0 to 100), Ryegrass, Italian ([4]; Preemergence, 31 g ai/ha): 75
Plant response rating (scale of 0 to 100), Ryegrass, Italian ([4]; Preemergence, 62 g ai/ha): 90
Plant response rating, Ryegrass, Italian [4, 11]: 98
Plant response rating, Ryegrass, Italian [4, 12]: 100
Plant response rating, Ryegrass, Italian [4, 13]: 90
Plant response rating, Soybean (soybean (Glycine max); [17]): 40
Plant response rating, Soybean (soybean (Glycine max); [19]): 30
Plant response rating, Soybean (soybean (Glycine max); [20]): 10
Plant response rating, Waterhemp [5, 17]: 90
Plant response rating, Waterhemp [5, 19]: 90
Plant response rating, Waterhemp [5, 20]: 75
Plant response rating, Corn (corn (Zea mays); [15]): 10
Plant response rating, Corn (corn (Zea mays); [17]): 5
Plant response rating, Corn (corn (Zea mays); [19]): 5
Plant response rating, Corn (corn (Zea mays); [20]): 0
Plant response rating, Crabgrass, Brazil [6, 15]: 25
Plant response rating, Crabgrass, Brazil [6, 17]: 40
Plant response rating, Crabgrass, Brazil [6, 19]: 50
Plant response rating, Crabgrass, Brazil [6, 20]: 10
